Test results from patent US20150291610A1, “C20' Urea Derivatives of Vinca Alkaloids” (THE SCRIPPS RESEARCH INSTITUTE, priority 2012, published 2015).
Where two headings read alike, the source gives them in different places.

Experiments:
[1] = tested on: HCT116 (human colorectal carcinoma) cells; settings: cited from earlier work; for IC50: reported in Leggans et al., Org. Lett. 2012
[2] = tested on: HCT116/VM46 (vinblastine-resistant strain of HCT116, Pgp over-expression) cells; settings: read-out: IC50 (nM) HCT116/VM46; reported in Leggans et al., Org. Lett. 2012; cited from earlier work
[3] = tested on: L1210 (mouse lymphocytic leukemia) cells; settings: reported in Leggans et al., Org. Lett. 2012; cited from earlier work
[4] = tested on: HCT116/VM46 (vinblastine-resistant strain of HCT116, Pgp over-expression) cells; assay: Cell growth inhibition assay, HCT116/VM46; settings: for IC50: read-out: IC50 (nM) HCT116/VM46, resistant human colon cancer cell line, Pgp over-expression; for fold improvement over vinblastine, HCT116/VM46: relative to vinblastine
Description: (§1) A population of cells (>1×10^6 cells/mL as determined with a hemocytometer) was diluted with an appropriate amount of Dulbecco-modified Eagle Medium (DMEM, Gibco) containing 10% fetal bovine serum (FBS, Gibco) to a final concentration of 30,000 cells/mL.
(§2) To each well of a 96-well plate (Corning Costar), 100 μL of the cell-media solution was added with a multichannel pipette. The cultures were incubated at 37° C. in an atmosphere of 5% CO2 and 95% humidified air for 24 hours. The test compounds were added to the plate as follows: test substances were diluted in DMSO to a concentration of 1 mM and 10-fold serial dilutions were performed on a separate 96-well plate. Fresh culture medium (100 μL) was added to each well of cells to constitute 200 μL of medium per well followed by 2 μL of each test agent. Compounds were tested in duplicate (n=2-8 times) at six concentrations between 0-1,000 nM or 0-10,000 nM. Following addition, cultures were incubated for an additional 72 hours.
(§3) The plates were incubated at 37° C. for either 5 minutes (L1210) or 15 minutes (HCT116 and HCT116/VM46).

[5] = tested on: HCT116 (human colorectal carcinoma) cells; assay: Cell growth inhibition assay, HCT116; format: cell-based; settings: for fold more potent than vinblastine, HCT116: relative to vinblastine
Description: as §1, §2, §3

[6] = tested on: L1210 (mouse lymphocytic leukemia) cells; assay: Cell growth inhibition assay, L1210; format: cell-based; settings: L1210 murine leukemia cell line; avg of 4-16 determinations
Description: as §1, §2, §3

[7] = HCT116 human colon cancer cell line, avg of 4-16 determinations, read-out: IC50 (nM) HCT116
[8] = text values in pM, read-out: IC50 HCT116

SMILES	IC50 [1] [nM]	IC50 [2] [nM]	IC50 [3] [nM]	IC50 [4] [nM]	IC50 [5, 7] [nM]	IC50 [6] [nM]	other results
CC1(C)CCCC(C)(C)N1[O] [TEMPO]	3800	5600	4000	–	–	–	–
CC[C@]1(O)C[C@@H]2CN(CCc3c([nH]c4ccc(F)cc34)[C@@](C(=O)OC)(c3cc4c(cc3OC)N(C)[C@H]3[C@@](O)(C(=O)OC)[C@H](OC(C)=O)[C@]5(CC)C=CCN6CC[C@]43[C@@H]65)C2)C1 [Compound 48, reference compound]	–	–	–	80	0.8	–	fold improvement in activity over vinblastine ([1]; Gotoh et al., ACS Med. Chem. Lett. 2011): 8 fold
CCC1(NC(=O)NC(=O)C(Cl)(Cl)Cl)CC2CN(CCc3c([nH]c4ccccc34)C(C(=O)OC)(c3cc4c(cc3OC)N(C)C3C(O)(C(=O)OC)C(OC(C)=O)C5(CC)C=CCN6CCC43C65)C2)C1 (centres unmarked) [NHCONHCOCCl3]	6	1600	45	–	–	–	–
CCC1(NC(=O)OC)CC2CN(CCc3c([nH]c4ccccc34)C(C(=O)OC)(c3cc4c(cc3OC)N(C)C3C(O)(C(=O)OC)C(OC(C)=O)C5(CC)C=CCN6CCC43C65)C2)C1 (centres unmarked) [Compound 10]	75	2600	50	–	–	–	–
CCC1(NC(C)=O)CC2CN(CCc3c([nH]c4ccccc34)C(C(=O)OC)(c3cc4c(cc3OC)N(C)C3C(O)(C(=O)OC)C(OC(C)=O)C5(CC)C=CCN6CCC43C65)C2)C1 (centres unmarked) [Compound 9]	90	7500	65	–	–	–	–
CCC1(N=[N+]=[N-])CC2CN(CCc3c([nH]c4ccccc34)C(C(=O)OC)(c3cc4c(cc3OC)N(C)C3C(O)(C(=O)OC)C(OC(C)=O)C5(CC)C=CCN6CCC43C65)C2)C1 (centres unmarked) [Compound N3]	690	5500	670	–	–	–	–
CCC1(SC#N)CC2CN(CCc3c([nH]c4ccccc34)C(C(=O)OC)(c3cc4c(cc3OC)N(C)C3C(O)(C(=O)OC)C(OC(C)=O)C5(CC)C=CCN6CCC43C65)C2)C1 (centres unmarked) [SCN]	550	2900	560	–	–	–	–
CC[C@]1(NC(=O)NCc2ccccc2)C[C@@H]2CN(CCc3c([nH]c4ccccc34)[C@@](C(=O)OC)(c3cc4c(cc3OC)N(C)[C@H]3[C@@](O)(C(=O)OC)[C@H](OC(C)=O)[C@]5(CC)C=CCN6CC[C@]43[C@@H]65)C2)C1 [Compound 31]	–	–	–	740	7.3	6.4	–
CCC1(NC=O)CC2CN(CCc3c([nH]c4ccccc34)C(C(=O)OC)(c3cc4c(cc3OC)N(C)C3C(O)(C(=O)OC)C(OC(C)=O)C5(CC)C=CCN6CCC43C65)C2)C1 (centres unmarked) [NHCHO]	85	6500	65	–	–	–	–
CC[C@]1(N=C=S)C[C@@H]2CN(CCc3c([nH]c4ccccc34)[C@@](C(=O)OC)(c3cc4c(cc3OC)N(C)[C@H]3[C@@](O)(C(=O)OC)[C@H](OC(C)=O)[C@]5(CC)C=CCN6CC[C@]43[C@@H]65)C2)C1 [Compound 5, 20′-isothiocyano-vinblastine]	530	7000	590	–	–	–	–
CCCCNC(=O)N[C@@]1(CC)C[C@@H]2CN(CCc3c([nH]c4ccccc34)[C@@](C(=O)OC)(c3cc4c(cc3OC)N(C)[C@H]3[C@@](O)(C(=O)OC)[C@H](OC(C)=O)[C@]5(CC)C=CCN6CC[C@]43[C@@H]65)C2)C1 [Compound 19]	–	–	–	270	4.6	5.7	–
CC[C@]1(NC(=O)N2CCN(C)CC2)C[C@@H]2CN(CCc3c([nH]c4ccccc34)[C@@](C(=O)OC)(c3cc4c(cc3OC)N(C)[C@H]3[C@@](O)(C(=O)OC)[C@H](OC(C)=O)[C@]5(CC)C=CCN6CC[C@]43[C@@H]65)C2)C1 [Compound 54]	–	–	–	710	3.4	7.7	–
CC[C@]1(NC(=O)N2CCC(c3ccccc3)CC2)C[C@@H]2CN(CCc3c([nH]c4ccccc34)[C@@](C(=O)OC)(c3cc4c(cc3OC)N(C)[C@H]3[C@@](O)(C(=O)OC)[C@H](OC(C)=O)[C@]5(CC)C=CCN6CC[C@]43[C@@H]65)C2)C1 [Compound 56]	–	–	–	55	3.1	5.3	–
CC[C@]1(NC(=O)N2CCCCC2)C[C@@H]2CN(CCc3c([nH]c4ccccc34)[C@@](C(=O)OC)(c3cc4c(cc3OC)N(C)[C@H]3[C@@](O)(C(=O)OC)[C@H](OC(C)=O)[C@]5(CC)C=CCN6CC[C@]43[C@@H]65)C2)C1 [Compound 42]	–	–	–	50	3.9	5.5	activity difference between sensitive HCT116 and vinblastine-resistant HCT116/VM46 ([4]; HCT116/VM46 vs HCT116): 10 fold
CC[C@]1(NC(=O)NCCc2ccccc2)C[C@@H]2CN(CCc3c([nH]c4ccccc34)[C@@](C(=O)OC)(c3cc4c(cc3OC)N(C)[C@H]3[C@@](O)(C(=O)OC)[C@H](OC(C)=O)[C@]5(CC)C=CCN6CC[C@]43[C@@H]65)C2)C1 [Compound 32]	–	–	–	590	6.3	6.3	–
CC[C@]1(NC(=O)Nc2ccccc2OC)C[C@@H]2CN(CCc3c([nH]c4ccccc34)[C@@](C(=O)OC)(c3cc4c(cc3OC)N(C)[C@H]3[C@@](O)(C(=O)OC)[C@H](OC(C)=O)[C@]5(CC)C=CCN6CC[C@]43[C@@H]65)C2)C1 [Compound 30]	–	–	–	65	–	4.8	fold improvement over vinblastine, HCT116/VM46 [4]: 10 fold; fold more potent than vinblastine, HCT116 [5]: ~10 fold; IC50 [5, 8]: 0.77 nM
CC[C@]1(NC(=O)N2Cc3ccc(OC)cc3C2)C[C@@H]2CN(CCc3c([nH]c4ccccc34)[C@@](C(=O)OC)(c3cc4c(cc3OC)N(C)[C@H]3[C@@](O)(C(=O)OC)[C@H](OC(C)=O)[C@]5(CC)C=CCN6CC[C@]43[C@@H]65)C2)C1 [Compound 59]	–	–	–	8.7	0.69	0.61	–
CC[C@]1(NC(=O)NC(C)(C)C)C[C@@H]2CN(CCc3c([nH]c4ccccc34)[C@@](C(=O)OC)(c3cc4c(cc3OC)N(C)[C@H]3[C@@](O)(C(=O)OC)[C@H](OC(C)=O)[C@]5(CC)C=CCN6CC[C@]43[C@@H]65)C2)C1 [Compound 20]	–	–	–	670	20	40	–
CC[C@]1(NC(=O)Nc2cccc(OC)c2)C[C@@H]2CN(CCc3c([nH]c4ccccc34)[C@@](C(=O)OC)(c3cc4c(cc3OC)N(C)[C@H]3[C@@](O)(C(=O)OC)[C@H](OC(C)=O)[C@]5(CC)C=CCN6CC[C@]43[C@@H]65)C2)C1 [Compound 29]	–	–	–	80	–	5.4	fold improvement over vinblastine, HCT116/VM46 [4]: 10 fold; fold more potent than vinblastine, HCT116 [5]: ~10 fold; IC50 [5, 8]: 0.77 nM
CC[C@]1(NC(=O)N2CCOCC2)C[C@@H]2CN(CCc3c([nH]c4ccccc34)[C@@](C(=O)OC)(c3cc4c(cc3OC)N(C)[C@H]3[C@@](O)(C(=O)OC)[C@H](OC(C)=O)[C@]5(CC)C=CCN6CC[C@]43[C@@H]65)C2)C1 [Compound 41]	–	–	–	360	4.5	5.3	–
CCC1(NC(=O)C(F)(F)F)CC2CN(CCc3c([nH]c4ccccc34)C(C(=O)OC)(c3cc4c(cc3OC)N(C)C3C(O)(C(=O)OC)C(OC(C)=O)C5(CC)C=CCN6CCC43C65)C2)C1 (centres unmarked) [NHCOCF3]	690	8100	660	–	–	–	–
CCC1CC2CN(CCc3c([nH]c4ccccc34)C(C(=O)OC)(c3cc4c(cc3OC)N(C)C3C(O)(C(=O)OC)C(OC(C)=O)C5(CC)C=CCN6CCC43C65)C2)C1 (centres unmarked) [Compound 3, 20′-deoxyvinblastine]	60	600	50	–	–	–	–
